In US4250176A, “Piperazine derivatives” (priority 1979, dated 1981) one finds IC50, minimal effective dose and ED50 data, which are given here for 23 compounds.

Each structure is given as a SMILES string. ≈ marks a conversion by molar mass, not a printed value. Structures can show the parent of a compound that is named as a salt. Where two headings read alike, the source gives them in different places.

In test [1] the test system is Guinea-pig ileum strips, histamine-induced contraction. Kind of test: Anti-histamine activity in "vitro": histamine-induced spasms of guinea-pig ileum strips. Conditions: Cavia porcellus, 5 min. The format is cell-based. How it is done: The histamine--(0.5 mg/liter) induced spasms are recorded Kymographically with an isotonic lever giving a 5-fold magnification.
Test [2] has as its system histamine paw oedema in guinea pigs. Kind of test: Histamine paw oedema in guinea pigs. Type of test: in vivo, guinea pig. Conditions: Cavia porcellus, read-out: Anaphylaxis in guinea pigs oral effective dose in mg/kg: Histamine oedema. The method, boiled down:
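Guinea pigs of 400–500 g were dosed orally with compound or saline 24 h after subplantar ovalbumin antiserum sensitisation in the left hind paw. Two hours after dosing, histamine 50 μg was injected subplantar into the right hind paw to induce oedema.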

Test [3] deals with Guinea pigs sensitized to ovalbumin (anaphylactic shock). Kind of test: Anaphylaxis in guinea pigs: protection against death after ovalbumin challenge (survival). Conditions: Cavia porcellus, read-out: Anaphylaxis in guinea pigs oral effective dose in mg/kg: Survival. Type of test: in vivo, guinea pig. The method, boiled down:
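Guinea pigs (400–500 g) sensitized by subplantar ovalbumin antiserum, dosed orally 24 h later. ED50 is the oral dose protecting 50% of animals from death.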

Setting [4] is: Table I-a, histamine 0.5 mg/liter, 5 minutes incubation, concentration giving significant inhibition (50%) of the contraction, read-out: Histamine in "vitro" (ileum) effective conc.
The mark [5] stands for this setting: Table I-a, oral dose giving paw reaction below 10 units 10 minutes after 50 μg histamine s.p., 2 hours after dosing.
The mark [6] stands for this setting: Table I-a, estimated ED50, oral, protection against death after i.v. 0.6 mg ovalbumin.
Where [7] appears, read: Table I-b, histamine 0.5 mg/liter, 5 minutes incubation, concentration giving significant inhibition (50%) of the contraction, read-out: Histamine in "vitro" (ileum) effective conc.
Where [8] appears, read: Table I-b, oral dose giving paw reaction below 10 units 10 minutes after 50 μg histamine s.p., 2 hours after dosing.
[9] abbreviates: Table I-b, estimated ED50, oral, protection against death after i.v. 0.6 mg ovalbumin.
Where [10] appears, read: Table I-d, histamine 0.5 mg/liter, 5 minutes incubation, concentration giving significant inhibition (50%) of the contraction, read-out: Histamine in "vitro" (ileum) effective dose.
[11] abbreviates: Table I-d, oral dose giving paw reaction below 10 units 10 minutes after 50 μg histamine s.p., 2 hours after dosing.
The mark [12] stands for this setting: Table I-d, estimated ED50, oral, protection against death after i.v. 0.6 mg ovalbumin.

Regarding `O=c1[nH]c2ccc(Cl)cc2n1CCCN1CCN(C(c2ccccc2)c2ccccc2)CC1` [6-chloro-1-{3-[4-(diphenylmethyl)-1-piperazinyl]propyl}-1,3-dihydro-2H-benzimidazol-2-one], in test [1] (setting [4]), the IC50 is 0.04 mg/L (≈ 0.0868 µM). Moreover, the minimal effective dose in test [2] (setting [5]) came out at 0.63 mg/kg. The ED50 in test [3] (setting [6]) was 0.63 mg/kg.

For the compound `CSc1nc2ccccc2n1CCCN1CCN(C(c2ccccc2)c2ccccc2)CC1` [I-b: M=CH3S, R1=H, (CH2)3, R6=H, R7=H, 1-{3-[4-(diphenylmethyl)-1piperazinyl]propyl}-2-(methylthio)-1H-benzimidazole trihydrochloride.hydrate], the IC50 in test [1] (setting [7]) was determined as 0.16 mg/L. Moreover, the minimal effective dose in test [2] (setting [8]) was 1.25 mg/kg. Further, the ED50 in test [3] (setting [9]) is 1.25 mg/kg.

For `O=c1[nH]c2cc(Cl)ccc2n1CCCN1CCN(C(c2ccc(F)cc2)c2ccc(F)cc2)CC1` [1-[3-{4-[bis(4-fluorophenyl)methyl]-1-piperazinyl}propyl]-5-chloro-1,3-dihydro-2H-benzimidazol-2-one], the IC50 in test [1] (setting [4]) came to 0.04 mg/L (≈ 0.0805 µM). Moreover, the minimal effective dose in test [2] (setting [5]) was 1.25 mg/kg. In addition, the ED50 in test [3] (setting [6]) is 1.25 mg/kg.

In the case of `CC(=O)n1c(=O)n(CCCN2CCN(C(c3ccccc3)c3ccccc3)CC2)c2ccccc21` [1-acetyl-3-{3-[4-(diphenylmethyl)-1-piperazinyl]propyl}-1,3-dihydro-2H-benzimidazol-2-one], in test [1] (setting [4]), the IC50 is 0.005 mg/L (≈ 0.0107 µM). Also, the minimal effective dose in test [2] (setting [5]) amounted to 0.31 mg/kg. Also, the ED50 in test [3] (setting [6]) is 0.1 mg/kg.

Consider `Fc1ccc(C(c2ccccc2)N2CCN(CCCCn3cnc4ccccc43)CC2)cc1` (stereo not drawn) [I-b: M=H, R1=H, (CH2)4, R6=4-F, R7=H, 1-[4-{4-[(4-fluorophenyl)phenylmethyl]-1-piperazinyl}butyl]-1H-benzimidazole], for which, in test [1] (setting [7]), the IC50 amounted to 0.005 mg/L (≈ 0.0113 µM). Also, the minimal effective dose in test [2] (setting [8]) stood at 0.16 mg/kg. The ED50 in test [3] (setting [9]) is 0.08 mg/kg.

On to `Cl.Cl.O=c1oc2ccccc2n1CCCN1CCN(C(c2ccccc2)c2ccccc2)CC1` [I-c: Y=O, 3-{3-[4-(diphenylmethyl)-1-piperazinyl]propyl}-2(3H)benzoxazolone dihydrochloride], for which the IC50 in test [1] (read-out: Histamine in "vitro" (ileum) effective conc. in mg/l) turned out to be 0.01 mg/L. Further, in test [2] (po, 2 h), the minimal effective dose is 2.5 mg/kg. The ED50 in test [3] (po) worked out at 0.63 mg/kg.

As for `O=c1[nH]c2cc(C(F)(F)F)ccc2n1CCCN1CCN(C(c2ccccc2)c2ccccc2)CC1` [1-{3-[4-(diphenylmethyl)-1-piperazinyl]propyl}-1,3-dihydro-5-(trifluoromethyl)-2H-benzimidazol-2-one], the IC50 in test [1] (setting [4]) amounted to 0.02 mg/L (≈ 0.0404 µM). Moreover, the minimal effective dose in test [2] (setting [5]) was 0.31 mg/kg. For the same compound, in test [3] (setting [6]), the ED50 was 0.31 mg/kg.

As for `CCOC(=O)CCn1c(=O)n(CCCN2CCN(C(c3ccccc3)c3ccccc3)CC2)c2ccccc21` [ethyl 3-{3-[4-(diphenylmethyl)-1-piperazinyl]propyl}-2,3-dihydro-2-oxo-1H-benzimidazole-1-propanoate dihydrochloride. dihydrate], the IC50 in test [1] (setting [4]) was determined as 0.005 mg/L. Moreover, the minimal effective dose in test [2] (setting [5]) was found to be 0.63 mg/kg. Also, in test [3] (setting [6]), the ED50 was 0.63 mg/kg.

Turning to `O=c1[nH]c2ccccc2n1CCCN1CCN(C(c2ccccc2)c2ccccc2F)CC1` (stereo not drawn) [1-[3-{4-[(2-fluorophenyl)phenylmethyl]-1-piperazinyl}propyl]-1,3-dihydro-2H-benzimidazol-2-one], in test [1] (setting [4]), the IC50 amounted to 0.02 mg/L (≈ 0.045 µM). In addition, in test [2] (setting [5]), the minimal effective dose was less than 2.5 mg/kg. The ED50 in test [3] (setting [6]) is less than 2.5 mg/kg.

Turning to `O=c1[nH]c2cc(C(F)(F)F)ccc2n1CCN1CCN(C(c2ccccc2)c2ccccc2)CC1` [1-{2-[4-(diphenylmethyl)-1-piperazinyl]ethyl}-1,3-dihydro-5-(trifluoromethyl)-2H-benzimidazol-2-one], the IC50 in test [1] (setting [4]) is 0.02 mg/L (≈ 0.0416 µM). Moreover, in test [2] (setting [5]), the minimal effective dose is 1.25 mg/kg. Besides, the ED50 in test [3] (setting [6]) was 0.31 mg/kg.

For the compound `O=c1[nH]c2ccccc2n1CCCN1CCN(C(c2ccc(Cl)cc2)c2ccccc2F)CC1` (stereo not drawn) [1-[3-{4-[α-(4-chlorophenyl)-α-(2-fluorophenyl)]-1-piperazinyl}propyl]-1,3-dihydro-2H-benzimidazol-2-one], the IC50 in test [1] (setting [4]) stood at 0.02 mg/L (≈ 0.0418 µM). For the same compound, the minimal effective dose in test [2] (setting [5]) came out at 1.25 mg/kg. Also, in test [3] (setting [6]), the ED50 was 0.31 mg/kg.

As to `O=c1[nH]c2ccccc2n1CCCN1CCN(C(c2ccccc2)c2ccccc2)CC1` [I-a: L=H, R1=H, R2=H, (CH2)3, R6=H, R7=H, 1-{3-[4-(diphenylmethyl)-1-piperazinyl]propyl}-1,3-dihydro-2H-benzimidazol-2-one], the IC50 in test [1] (setting [4]) was 0.005 mg/L (≈ 0.0117 µM). Further, in test [2] (setting [5]), the minimal effective dose was 0.31 mg/kg. Further, the ED50 in test [3] (setting [6]) is 0.1 mg/kg.

As to `O=c1[nH]c2ccccc2n1CCCN1CCN(C(c2ccccc2)c2ccc([N+](=O)[O-])cc2)CC1` (stereo not drawn) [1,3-dihydro-1-[3-{4-[(4-nitrophenyl)phenylmethyl]-1-piperazinyl}propyl]-2H-benzimidazol-2-one], in test [1] (setting [4]), the IC50 stood at 0.16 mg/L (≈ 0.339 µM). Moreover, in test [2] (setting [5]), the minimal effective dose is less than 2.5 mg/kg. In addition, the ED50 in test [3] (setting [6]) was less than 2.5 mg/kg.

Take `O=c1[nH]c2ccccc2n1CCN1CCN(C(c2ccccc2)c2ccc(F)cc2)CC1` (stereo not drawn) [1-[2-{4-[α-(4-fluorophenyl)-α-phenylmethyl]-1-piperazinyl}ethyl]-1,3-dihydro-2H-benzimidazol-2-one]: the IC50 in test [1] (setting [4]) came to 0.02 mg/L (≈ 0.0465 µM). Besides, the minimal effective dose in test [2] (setting [5]) is 0.16 mg/kg. Besides, the ED50 in test [3] (setting [6]) is 0.31 mg/kg.

In the case of `Cl.Cl.Cl.Clc1ccccc1C(c1ccccc1)N1CCN(CCCn2cnc3ccccc32)CC1.O.O` (stereo not drawn) [I-b: M=H, R1=H, (CH2)3, R6=2-Cl, R7=H, 1-[3-{4-[(2-chlorophenyl)phenylmethyl]-1-piperazinyl}propyl]1H-benzimidazole trihydrochloride dihydrate], the IC50 in test [1] (setting [7]) stood at 0.01 mg/L. For the same compound, the minimal effective dose in test [2] (setting [8]) amounted to 1.25 mg/kg. The ED50 in test [3] (setting [9]) was 1.25 mg/kg.

As for `c1ccc(C(OC2CCN(CCCn3cnc4ccccc43)CC2)c2ccccc2)cc1` [1-{3-[4-(diphenylmethoxy)-1-piperidinyl]propyl}-1H-benzimidazole], the IC50 in test [1] (setting [10]) was 0.0025 mg/L (≈ 0.00587 µM). In addition, the minimal effective dose in test [2] (setting [11]) stood at 0.16 mg/kg. Besides, the ED50 in test [3] (setting [12]) was 0.16 mg/kg.

On to `O=c1[nH]c2ccccc2n1CCN1CCN(C(c2ccc(F)cc2)c2ccc(F)cc2)CC1` [1-[2-{4-[bis(4-fluorophenyl)methyl]-1-piperazinyl}ethyl]-1,3-dihydro-2H-benzimidazol-2-one hemihydrate], for which the IC50 in test [1] (setting [4]) was found to be 0.02 mg/L. Besides, the minimal effective dose in test [2] (setting [5]) amounted to 0.63 mg/kg. Moreover, the ED50 in test [3] (setting [6]) was 0.63 mg/kg.

`O=c1[nH]c2ccccc2n1CCCN1CCN(C(c2ccccc2)c2ccc(Cl)cc2)CC1` (stereo not drawn) [1-[3-{4-[α-(4-chlorophenyl)-α-phenylmethyl]-1-piperazinyl}propyl]-1,3-dihydro-2H-benzimidazol-2-one]: the IC50 in test [1] (setting [4]) came to 0.01 mg/L (≈ 0.0217 µM). In addition, in test [2] (setting [5]), the minimal effective dose is 0.63 mg/kg. Moreover, the ED50 in test [3] (setting [6]) was 1.25 mg/kg.

On to `O=c1[nH]c2ccccc2n1CCCCN1CCN(C(c2ccc(F)cc2)c2ccc(F)cc2)CC1` [1-[4-{4-[bis(4-fluorophenyl)methyl]-1-piperazinyl}-butyl]-1,3-dihydro-2H-benzimidazol-2-one dihydrochloride.hydrate.hemiethanolate], for which, in test [1] (setting [4]), the IC50 was determined as 0.01 mg/L. In test [2] (setting [5]), the minimal effective dose was found to be 0.31 mg/kg. For the same compound, in test [3] (setting [6]), the ED50 was 0.16 mg/kg.

For the compound `O=c1[nH]c2ccccc2n1CCCCCCN1CCN(C(c2ccccc2)c2ccccc2)CC1` [I-a: L=H, R1=H, R2=H, (CH2)6, R6=H, R7=H, 1-{6-[4-(diphenylmethyl)-1-piperazinyl]hexyl}-1,3-dihydro-2H-benzimidazol-2-one], the IC50 in test [1] (setting [4]) is 0.01 mg/L (≈ 0.0213 µM). The minimal effective dose in test [2] (setting [5]) stood at 2.5 mg/kg. The ED50 in test [3] (setting [6]) was 1.25 mg/kg.

As to `Cl.O=c1[nH]c2ccccc2n1CCN1CCC(OC(c2ccccc2)c2ccccc2)CC1` [1-{2-[4-(diphenylmethoxy)-1-piperidinyl]ethyl}-1,3-dihydro-2H-benzimidazol-2-one hydrochloride], the IC50 in test [1] (setting [10]) turned out to be 0.0025 mg/L. In addition, the minimal effective dose in test [2] (setting [11]) worked out at 0.16 mg/kg. Besides, in test [3] (setting [12]), the ED50 is 0.31 mg/kg.

Take `c1ccc(C(c2ccccc2)N2CCN(CCCn3c(C4CCCCC4)nc4ccccc43)CC2)cc1` [2-cyclohexyl-1-{3-[4-(diphenylmethyl)-1-piperazinyl]propyl}-1H-benzimidazole]: the IC50 in test [1] (setting [7]) is not below 0.16 mg/L. Also, the minimal effective dose in test [2] (setting [8]) was 2.5 mg/kg. Besides, the ED50 in test [3] (setting [9]) was 2.5 mg/kg.

As to `O=c1[nH]c2ccccc2n1CCCCCN1CCN(C(c2ccc(F)cc2)c2ccc(F)cc2)CC1` [1-[5-{4-[bis(4-fluorophenyl)-methyl]-1-piperazinyl}pentyl]-1,3-dihydro-2H-benzimidazol-2-one dihydrochloride.hydrate], the IC50 in test [1] (setting [4]) came out at 0.01 mg/L. Further, the minimal effective dose in test [2] (setting [5]) came out at 2.5 mg/kg. In test [3] (setting [6]), the ED50 was 1.25 mg/kg.
